The experiment concerns the target T1, Lysine-specific demethylase 4C (Homo sapiens, UniProt Q9H3R0).
T1 sequence (Q9H3R0 whole entry): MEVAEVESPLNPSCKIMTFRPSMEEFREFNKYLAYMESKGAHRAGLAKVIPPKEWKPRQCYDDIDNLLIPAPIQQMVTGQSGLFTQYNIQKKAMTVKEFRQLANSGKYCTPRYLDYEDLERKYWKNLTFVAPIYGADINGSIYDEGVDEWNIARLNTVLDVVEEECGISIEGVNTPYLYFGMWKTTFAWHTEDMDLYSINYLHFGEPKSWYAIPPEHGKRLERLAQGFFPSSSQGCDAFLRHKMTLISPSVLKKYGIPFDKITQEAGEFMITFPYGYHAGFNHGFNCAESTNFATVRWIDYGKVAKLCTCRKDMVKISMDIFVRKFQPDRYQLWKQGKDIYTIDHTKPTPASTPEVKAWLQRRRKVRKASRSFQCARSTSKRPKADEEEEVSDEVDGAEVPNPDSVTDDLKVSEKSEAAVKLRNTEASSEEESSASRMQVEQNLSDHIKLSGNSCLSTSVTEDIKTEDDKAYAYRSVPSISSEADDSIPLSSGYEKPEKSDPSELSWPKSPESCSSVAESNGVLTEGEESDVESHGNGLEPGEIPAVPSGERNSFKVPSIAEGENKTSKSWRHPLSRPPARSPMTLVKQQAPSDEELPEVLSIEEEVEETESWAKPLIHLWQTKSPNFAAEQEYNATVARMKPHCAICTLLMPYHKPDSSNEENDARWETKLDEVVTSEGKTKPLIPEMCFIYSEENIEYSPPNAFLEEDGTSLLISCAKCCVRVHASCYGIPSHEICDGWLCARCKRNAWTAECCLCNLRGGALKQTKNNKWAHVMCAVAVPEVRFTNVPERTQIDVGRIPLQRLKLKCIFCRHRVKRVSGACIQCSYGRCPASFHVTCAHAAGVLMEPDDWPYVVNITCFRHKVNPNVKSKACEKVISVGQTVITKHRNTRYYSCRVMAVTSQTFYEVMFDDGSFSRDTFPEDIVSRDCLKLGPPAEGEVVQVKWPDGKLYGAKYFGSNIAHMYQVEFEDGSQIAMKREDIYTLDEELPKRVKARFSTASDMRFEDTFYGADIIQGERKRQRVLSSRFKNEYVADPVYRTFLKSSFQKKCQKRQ
The experiment is described as follows: Inhibition of KDM4C catalytic core-mediated demethylation of ARK(Me)3STGGK after 30 mins by FDH-coupled assay.

SMILES strings stand for the structures.

In general, IC50 refers to the concentration needed to halve the response being measured. A higher IC50 goes with a need for much substance. By Ki is commonly meant the equilibrium dissociation constant of an inhibitor or competing ligand from its target. Take `CNC(=O)c1n[nH]n(C)c1=O`: the IC50 was more than 200 µM and the Ki is more than 200 µM.
With `OCC1C(Cl)N=NN1c1ccccc1` (stereo unspecified), the IC50 is more than 200 µM and the Ki was more than 200 µM.
Regarding `CN1CN(Cc2ccccc2)CC1=S`, the IC50 was more than 200 µM and the inhibition constant Ki was more than 200 µM.

Source of the values: BindingDB's records for doi:10.1016/j.bmcl.2012.07.091 (University of Copenhagen, 2012).
